# Reference: the supplement of paper PMC10307832
# Experiments:
# Assay in all cases: relative viability (nuclei count vs DMSO), 5 days (fraction); higher = more cells survive
# AZD5582 + Luminespib = compound: C[C@@H](C(=O)N[C@@H](C1CCCCC1)C(=O)N2CCC[C@H]2C(=O)N[C@@H]3[C@@H](CC4=CC=CC=C34)OCC#CC#CCO[C@@H]5CC6=CC=CC=C6[C@@H]5NC(=O)[C@@H]7CCCN7C(=O)[C@H](C8CCCCC8)NC(=O)[C@H](C)NC)NC [AZD5582] + CCNC(=O)c1noc(-c2cc(C(C)C)c(O)cc2O)c1-c1ccc(CN2CCOCC2)cc1 [Luminespib] (partner 0.01 µM)
# Procedure, shortened: (§1)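 The day after seeding in 1536-well plates, lung cancer cell lines were treated by pin tool with a single drug, or with a fixed anchor-drug dose together with five library-drug doses (not always all listed) in √10 steps. After 5 days, a combined fix-and-stain solution (final 0.05% Triton X-100, 1% formaldehyde, 1 ug/ml Hoechst) was added. Nuclei counted on 4× images gave relative viability as treated counts over vehicle counts, reported as the median of duplicate plates.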
# Temozolomide + AZD7762 = compound: Cn1nnc2c(C(N)=O)ncn2c1=O [Temozolomide] + NC(=O)Nc1cc(-c2cccc(F)c2)sc1C(=O)N[C@H]1CCCNC1 [AZD7762] (partner 0.2 µM)
# Procedure, shortened: as §1
# AZD5582 + Olaparib = compound: C[C@@H](C(=O)N[C@@H](C1CCCCC1)C(=O)N2CCC[C@H]2C(=O)N[C@@H]3[C@@H](CC4=CC=CC=C34)OCC#CC#CCO[C@@H]5CC6=CC=CC=C6[C@@H]5NC(=O)[C@@H]7CCCN7C(=O)[C@H](C8CCCCC8)NC(=O)[C@H](C)NC)NC [AZD5582] + O=C(c1cc(Cc2n[nH]c(=O)c3ccccc23)ccc1F)N1CCN(C(=O)C2CC2)CC1 [Olaparib] (partner 8 µM)
# Procedure, shortened: as §1
# [1] = compound: Cn1nnc2c(C(N)=O)ncn2c1=O [Temozolomide] + CS(=O)(=O)N1CCN(Cc2cc3nc(-c4cccc5[nH]ncc45)nc(N4CCOCC4)c3s2)CC1 [Pictilisib] (partner 1 µM)
# Procedure, shortened: as §1
Cell Line,relative viability (AZD5582 + Luminespib; first compound 0.001581 µM),relative viability (AZD5582 + Luminespib; first compound 0.005 µM),relative viability (AZD5582 + Luminespib; first compound 0.01581 µM),relative viability (AZD5582 + Luminespib; first compound 0.05 µM),relative viability (Temozolomide + AZD7762; first compound 0.2 µM),relative viability (Temozolomide + AZD7762; first compound 0.6325 µM),relative viability (Temozolomide + AZD7762; first compound 2 µM),relative viability (Temozolomide + AZD7762; first compound 6.325 µM),relative viability (Temozolomide + AZD7762; first compound 20 µM),relative viability (AZD5582 + Olaparib; first compound 0.001581 µM),relative viability (AZD5582 + Olaparib; first compound 0.005 µM),relative viability (AZD5582 + Olaparib; first compound 0.01581 µM),relative viability (AZD5582 + Olaparib; first compound 0.05 µM),relative viability ([1]; first compound 0.6325 µM),relative viability ([1]; first compound 2 µM),relative viability ([1]; first compound 6.325 µM),relative viability ([1]; first compound 20 µM),relative viability ([1]; first compound 0.2 µM)
CAL-12T,0.192,0.298,0.401,0.326,0.645,0.618,0.628,0.657,0.699,0.558,0.534,0.636,0.373,0.434,0.425,0.334,0.391,
NCI-H2126,0.817,0.831,0.84,0.811,1.05,1.02,1.02,0.959,1.11,0.897,0.868,0.861,0.745,0.554,0.489,0.511,0.457,0.475
BEN,0.332,0.325,0.634,0.392,0.712,0.616,0.779,0.689,0.678,1.09,0.985,1.02,1.17,0.629,0.657,0.552,0.484,0.467
NCI-H2405,0.892,0.924,0.733,1.08,0.821,0.79,0.828,0.759,0.75,0.83,0.875,0.833,0.842,0.434,0.487,0.338,0.465,0.392
NCI-H727,0.67,0.236,0.507,0.311,,0.521,0.512,0.606,0.412,0.698,0.73,0.65,0.781,0.316,0.364,0.286,0.371,0.324
EMC-BAC-2,1.06,0.922,1.19,0.721,1.12,1.17,1.15,1.08,1.12,0.43,0.446,0.437,0.446,0.596,0.587,0.497,0.495,0.535
A-427,0.665,0.845,0.906,0.897,0.758,0.744,0.698,0.472,0.422,0.678,0.716,0.729,0.59,0.733,0.797,0.417,0.329,0.816
NCI-H358,0.225,0.279,0.357,0.417,,0.466,0.533,0.408,0.369,0.56,0.702,0.616,0.791,0.392,0.348,0.305,0.283,0.342
NCI-H23,0.212,0.207,,0.276,0.247,0.278,0.282,0.181,0.255,0.272,0.203,0.3,0.236,0.508,0.517,0.401,0.454,0.563
NCI-H2085,0.435,0.478,0.439,0.493,0.878,1.03,0.938,0.928,0.972,0.842,0.903,0.726,0.733,0.434,0.551,0.453,0.442,0.452
NCI-H1755,0.259,0.49,0.329,0.437,0.487,0.396,0.485,0.385,0.638,0.843,0.966,0.938,0.939,0.447,0.462,0.413,0.379,0.507
NCI-H1666,0.888,0.931,1.01,0.946,0.795,0.923,0.858,0.7,0.657,0.766,0.745,0.674,0.77,0.404,0.394,0.345,0.298,0.433
NCI-H1944,0.64,0.714,0.757,0.802,0.432,0.505,0.391,0.441,0.696,0.379,0.403,0.365,0.446,0.352,0.363,0.346,0.342,0.366
NCI-H1651,0.859,0.904,,0.96,0.392,0.403,0.478,0.465,0.419,0.175,0.183,0.18,0.163,0.681,0.654,0.588,0.613,0.567
NCI-H2347,0.616,0.239,0.262,0.692,0.572,0.743,0.757,0.792,0.706,0.496,0.624,0.581,0.525,0.863,0.861,0.649,0.502,0.624
HOP-62,0.837,0.85,0.987,1.07,0.82,0.512,0.635,0.503,0.742,0.234,0.287,0.252,0.232,0.961,0.816,0.385,0.545,0.918
NCI-H1993,0.848,1.02,0.888,0.946,0.678,0.764,1.03,0.692,0.71,0.982,1.16,1.06,1.12,0.819,0.871,0.826,0.834,0.853
NCI-H1793,0.23,0.282,0.239,0.18,,0.414,0.605,0.401,0.411,0.674,1.08,0.75,1.23,0.294,0.286,0.292,0.309,
HCC-15,0.264,0.323,0.278,0.301,1.53,1.18,1.29,1.32,1.4,0.615,0.624,0.622,0.598,0.82,0.737,0.693,0.786,0.818
NCI-H1437,1.11,0.986,1.12,1.14,1.09,1.12,1.14,1.12,1.14,0.711,0.649,0.648,0.623,0.539,0.502,0.521,0.44,0.474
